Experimental data from patent US11420922B2, “Hydroxylated tropolone inhibitors of nucleotidyl transferases in herpesvirus and Hepatitis B and uses therefor” (Saint Louis University, priority 2015, dated 2022).
Like-named read-outs stand apart in the source and are kept apart here.

Legend:
HSV-2 = assay: Anti-HSV-2 replication assay in Vero cells, titers by plaque assay; format: cell-based, herpes simplex virus 2; details: for log reduction at 50 µM / log reduction at 5 µM: Human alphaherpesvirus 2, Vero, 24 h; for log reduction at 50 µM: read-out: HSV-2 Log suppression 50 μM; for log reduction at 5 µM: read-out: HSV-2 Log suppression 5 μM
[1] = Cytotoxicity reported with the HBV assay (Table 4); format: cell-based; details: human
Method: Qualitative assessments of cytotoxicity were done visually by inspecting the cells in the primary screening assays. For the quantitative assays, cells were plated in 96-well plates at 1.0×10^4 per well. The next day the compounds were added at 0.78 to 100 μM in a final concentration of 1% (v/v) DMSO, and the cells were incubated for 24 hours under conditions identical to those employed for the viral replication inhibition assays. Mitochondrial toxicity was measured by incubating the cells with 0.25 mg/mL thiazolyl blue tetrazolium bromide (MTT, Sigma Aldrich Chemical Co.), the cultures were incubated for 60 min, metabolites were solubilized in acidic isopropanol, and absorbance was read at 570 nm. CC50 values were calculated by non-linear curve fitting using GraphPad Prism.

HSV-1 = assay: Anti-HSV-1 replication assay in Vero cells, titers by plaque assay; format: cell-based, herpes simplex virus 1; details: Human alphaherpesvirus 1, Vero; for log reduction at 5 µM / log reduction at 50 µM: 24 h; for log reduction at 5 µM: read-out: HSV-1 Log suppression 5 μM; for log reduction at 50 µM: read-out: HSV-1 Log suppression 50 μM; for log reduction at 1.5 µM: read-out: HSV-1 Log suppression 1.5 μM
Method: Vero cells were maintained in Dulbecco's modified Eagle's medium (DMEM) containing 3% newborn calf serum, 3% bovine growth serum, 2 mM L-glutamine and 100 IU/mL penicillin and 0.1 mg/mL streptomycin (P/S). HSV-1 #6 and HSV-2 #1 are de-identified clinical isolates from the Saint Louis University Hospital. Stocks were prepared after a single passage in cell culture and were titered by standard plaque assay (Knipe and Spang, 1982). Wild-type HSV-2 used in FIG. 3 was laboratory strain 333. […] Virus stocks were grown and titered on Vero cells (Morrison and Knipe, 1996).
(§1) Compounds to be screened were diluted in PBS supplemented to contain 2% newborn calf serum and 1% glutamine, and added in 100 μL volume to confluent cell monolayers in 24-well cluster plates. Immediately thereafter HSV-1 and HSV-2, diluted in the supplemented PBS medium, were added to the wells in 50 μl volume such that the final concentration of compound was 50 μM and 5 μM and the multiplicity of infection was 0.1. The plates were incubated at 37° C. for 1 hour and then virus-containing inoculum was removed and the wells were washed once in PBS. Compounds, diluted to 50 μM and 5 μM in DMEM supplemented to contain 2% newborn calf serum and 1% each penicillin/streptomycin, were added at 0.5 mL/well. Plates were incubated at 37° C. an additional 23 hr, and then the plates were visually inspected through a phase contrast microscope for cytopathic effect, and for toxic effect. […] The entire contents of each well were collected by scraping. Samples were frozen at −80° C., and then subsequently thawed, sonicated, and infectious virus titer was determined by standard plaque assay on Vero cell monolayers. Because the compounds were dissolved at 10 mM in 100% DMSO, equivalent dilutions of DMSO were added to additional wells as a control for effects of the diluent. Each experiment was repeated once. EC50 values were determined as above except that serial dilutions of the compound to be tested were prepared starting at 50 μM. The inhibitory values were calculated by non-linear curve-fitting in GraphPad Prism.

HSV = assay: Anti-HSV SAR summary, HSV type not separated; format: cell-based, herpes simplex virus; details: grouped by activity at 50, 5 and 0.5 μM
Method: as §1
A series of over 20 synthetic αHTs were synthesized and tested to both confirm the initial SAR, and to provide leads for further optimization pursuits (FIG. 5). […] Specifically, biphenyl-containing molecules #118 and 115 inhibit HSV replication by up to 4 log10 at 200 nM. The increased potency over close analogs #111 and 113 confirmed the importance of added lipophilicity.

HBV = HBV replication assay in HepDES19 cells; format: cell-based; details: Hepatitis B virus; HepDES19 cells; read-out: EC50 (HBV assay)
Method: HBV replication assay. Inhibition of HBV replication was measured in HepDES19 cells as previously described (Cai, et al., 2014). Cells were seeded into 6-well plates and incubated in DMEM/F12, 10% fetal bovine serum (FBS), 1% penicillin/streptomycin (P/S) with 1 μg/ml tetracycline. Tetracycline was withdrawn after 24 hours. The test compound was applied to duplicate wells 48 hours later in medium containing a final DMSO concentration of 1%, and medium containing the compound was refreshed daily for the following two days. Cells were harvested and non-encapsidated nucleic acids were digested with micrococcal nuclease (New England Biolabs). HBV DNA was purified from capsids using QIAamp Cador Pathogen Mini Kit (Qiagen) with proteinase K incubation overnight at 37° C. TaqMan PCR was performed for 40 cycles at an annealing temperature of 60° C. Primers and probe (IDT Inc.) for the plus-polarity strand were: 5′[…]3′ (SEQ ID NO: 1); 5′[…]3′ (SEQ ID NO: 2); 5′/56-FAM/[…]/ZEN/[…]/3IABkFQ (SEQ ID NO: 3). Primers and probe for the minus-polarity strand were: 5′[…]3′ (SEQ ID NO: 4); 5′[…]3′ (SEQ ID NO: 5); 5′/56-FAM/[…]/ZEN/[…]/3IABkFQ (SEQ ID NO: 6).

[2] = hepatoma cells, read-out: CC50 (HBV assay table)
[3] = 5 μM, moi 0.1, 24 h, vs DMSO, +/− are qualitative, key not given
[4] = 50 μM, moi 0.1, 24 h, vs DMSO, +/−/T are qualitative, key not given

SMILES: COC(=O)c1c(C)cc(OC)c(=O)c(O)c1OC [Compound 269]
- HSV-2 Log suppression 1.5 μM (HSV-2; 1.5 μM): 4.04 log10
- log reduction at 50 µM (HSV-2): 4.67
- CC50 at 24 h [1, 2]: > 100 µM
- log reduction at 5 µM (HSV-1): 1.48
- log reduction at 50 µM (HSV-1): 3.76
- log reduction at 1.5 µM (HSV-1): 0.24

SMILES: COC(=O)c1c(CCl)cc(O)c(=O)c(O)c1C(=O)OC [Compound 107]
- CC50 at 24 h [1, 2]: 71 µM

SMILES: O=c1c(O)ccc(Br)cc1O [Compound 261]
- CC50 at 24 h [1, 2]: > 100 µM

SMILES: Cc1cc(O)c(=O)c(O)cc1C(=O)c1ccc(-c2ccncc2)cc1 [Compound 260]
- log reduction at 1.5 µM (HSV-1): 0.5

SMILES: Cc1ccc(O)c(=O)c(O)c1 [Compound 210]
- log reduction at 5 µM (HSV-2): 4.04
- log reduction at 50 µM (HSV-2): 5.55
- log reduction at 5 µM (HSV-1): 4.32
- log reduction at 50 µM (HSV-1): 4.56

SMILES: Cc1cc(O)c(=O)c(O)cc1-c1ccc([N+](=O)[O-])cc1 [Compound 112]
- anti-HSV SAR group, in words (HSV): weakest inhibitors
- log reduction at 5 µM (HSV-2): -0.4
- log reduction at 50 µM (HSV-2): 3.2
- EC50 (HBV): 2.5 µM
- log reduction at 5 µM (HSV-1): 0.02
- log reduction at 50 µM (HSV-1): 5.25

SMILES: CCOC(=O)c1cc(O)c(=O)c(O)cc1C [Compound 109]
- anti-HSV SAR group, in words (HSV): weakest inhibitors
- log reduction at 5 µM (HSV-2): -0.22
- log reduction at 50 µM (HSV-2): 4.15
- log reduction at 5 µM (HSV-1): 0.21
- log reduction at 50 µM (HSV-1): 3.99

SMILES: O=c1c(O)ccc(-c2ccc(-c3ccccc3)cc2)cc1O [Compound 264]
- CC50 at 24 h [1, 2]: 28 µM

SMILES: COCc1cc(O)c(=O)c(O)c(C(=O)OC)c1C(=O)OC [Compound 108]
- anti-HSV SAR group, in words (HSV): weakest inhibitors
- log reduction at 5 µM (HSV-2): 0
- CC50 at 24 h [1, 2]: 81 µM
- log reduction at 5 µM (HSV-1): 0

SMILES: O=c1c(O)cccc2cc(O)c(O)c(O)c12 [Compound 195, purpurogallin]
- log reduction at 5 µM (HSV-2): -0.04
- log reduction at 50 µM (HSV-2): 0.11
- log reduction at 5 µM (HSV-1): 0.17
- log reduction at 50 µM (HSV-1): 0.2

SMILES: Cc1cc(O)c(=O)c(O)cc1-c1cccc(-c2cccc3ccccc23)c1 [Compound 234]
- log reduction at 1.5 µM (HSV-1): 2.71

SMILES: Cc1cc(O)c(=O)c(O)cc1C(=O)c1cccc(-c2ccc3ccccc3c2)c1 [Compound 259]
- CC50 at 24 h [1, 2]: 21 µM
- EC50 (HBV): 2.8 µM
- log reduction at 1.5 µM (HSV-1): 5.05

SMILES: Cc1cc(O)c(=O)c(O)cc1C(=O)c1ccc(-c2cccc3ccccc23)cc1 [Compound 256]
- log reduction at 1.5 µM (HSV-1): 5.18

SMILES: CCOC(=O)c1c(C)cc(O)c(=O)c(O)c1O [Compound 270]
- log reduction at 5 µM (HSV-2): 6.32
- log reduction at 50 µM (HSV-2): 6.9
- log reduction at 5 µM (HSV-1): 5.97
- log reduction at 50 µM (HSV-1): 6.47

SMILES: O=c1c(O)ccc(-c2cnc3ccccc3c2)cc1O [Compound 267]
- CC50 at 24 h [1, 2]: 25 µM

SMILES: Cc1cc(O)c(=O)c(O)cc1-c1ccc(Cl)cc1 [Compound 144]
- anti-HSV SAR group, in words (HSV): weakest inhibitors
- log reduction at 5 µM (HSV-2): 0.65
- log reduction at 50 µM (HSV-2): 5.18
- log reduction at 5 µM (HSV-1): -0.34
- log reduction at 50 µM (HSV-1): 3.83

SMILES: Nc1ccn(C[C@@H](CO)OCP(=O)(O)O)c(=O)n1 [CDV, Cidofovir, reference compound]
- log reduction at 5 µM (HSV-2; [3]): 0.38
- log reduction at 50 µM (HSV-2; [4]): 1.19
- log reduction at 5 µM (HSV-1; [3]): 0.77
- log reduction at 50 µM (HSV-1; [4]): 2.67

SMILES: O=c1c(O)ccc(-c2ccccc2)cc1O [Compound 262]
- CC50 at 24 h [1, 2]: 96 µM

SMILES: Cc1cc(O)c(=O)c(O)cc1C(=O)c1cccc(-c2cccc3ccccc23)c1 [Compound 257]
- CC50 at 24 h [1, 2]: 32 µM
- EC50 (HBV): 8.3 µM
- log reduction at 1.5 µM (HSV-1): 4.82

SMILES: Cc1cc(O)c(=O)c(O)cc1-c1cccc(-c2ccccc2)c1 [Compound 231]
- CC50 at 24 h [1, 2]: 16 µM
- EC50 (HBV): 10 µM

SMILES: COC(=O)c1c2c(cc(O)c(=O)c1O)COC2=O [Compound 280]
- CC50 at 24 h [1]: 32 µM

SMILES: O=C1OCc2cc(O)c(=O)c(O)c(O)c21 [Compound 271]
- log reduction at 5 µM (HSV-2): 1.53
- log reduction at 50 µM (HSV-2): 2.94
- log reduction at 5 µM (HSV-1): 0.47
- log reduction at 50 µM (HSV-1): 1.87
- log reduction at 1.5 µM (HSV-1): 0.21

SMILES: O=c1c(O)ccc(-c2ccco2)cc1O [Compound 265]
- CC50 at 24 h [1, 2]: 40 µM

SMILES: Cc1cc(O)c(=O)c(O)cc1-c1ccc(-c2cccc3ccccc23)cc1 [Compound 235]
- CC50 at 24 h [1, 2]: 30 µM
- EC50 (HBV): 5.2 µM

SMILES: Cc1cc(O)c(=O)c(O)cc1C(=O)c1cccc(-c2ccccc2)c1 [Compound 255]
- log reduction at 1.5 µM (HSV-1): 5.02

SMILES: Cc1cc(O)c(=O)c(O)cc1-c1ccc(-c2ccc3ccccc3c2)cc1 [Compound 233]
- log reduction at 1.5 µM (HSV-1): 2.63

SMILES: Cc1cc(O)c(=O)c(O)cc1-c1cccc(-c2ccc3ccccc3c2)c1 [Compound 232]
- CC50 at 24 h [1, 2]: 55 µM
- EC50 (HBV): 9.6 µM

SMILES: COC(=O)c1cc(O)c(=O)c(OC)cc1C [Compound 273]
- log reduction at 5 µM (HSV-2): 6.32
- log reduction at 50 µM (HSV-2): 6.9
- log reduction at 5 µM (HSV-1): 5.75
- log reduction at 50 µM (HSV-1): 6.05
- log reduction at 1.5 µM (HSV-1): 2.12

SMILES: Cc1cc(O)c(=O)c(O)cc1C(=O)c1ccc(-c2ccc3ccccc3c2)cc1 [Compound 258]
- CC50 at 24 h [1, 2]: 28 µM
- EC50 (HBV): 8.8 µM
- log reduction at 1.5 µM (HSV-1): 5.04

SMILES: O=c1c(O)ccc(-c2ccncc2)cc1O [Compound 266]
- CC50 at 24 h [1, 2]: 32 µM

SMILES: COC(=O)c1cc(O)c(=O)c(O)cc1C [Compound 274]
- CC50 at 24 h [1, 2]: > 100 µM
- log reduction at 1.5 µM (HSV-1): 0.59
